In brackets after ≈: the same amount, converted by molar mass. One block for each compound: values may come before it. No end group written: not given here.
Key:
[1] = Circular dichroism (CD) spectral analysis of peptide conformation, % helicity; type: physicochemical; details: room temperature
Experimental: According to this example, circular dichroism (CD) experiments were performed to determine the conformation changes of VIP in phospholipid micelles, pH and temperature changes, and in aqueous solutions. CD spectra were recorded on a JASCO J-700 spectropolarimeter using a fused quartz cell of 1 cm pathlength. Spectra in 0.15 N saline (pH 6.8) and 5 mM Hepes buffer (pH 7.4) were measured at a peptide concentration of 4 μM and at a lipid concentration of 1 mM. The effects of CaM, pH (6.8 or 7.4) and temperature (25° C. or 37° C.) on VIP conformation were also studied. The conformation of VIP fragments was likewise studied. All measurements were carried out at room temperature (˜25° C.) unless otherwise noted. A bandwidth of 1.0 nm and a step resolution of 0.5 nm were used to collect an average of 9 accumulations/sample at the […] (200-260 nm wavelength). The peptide spectra shown have the background buffer scans, and empty vesicle scans subtracted and were smoothed using the noise reduction function. The temperature during spectral analysis was maintained by using a circulating water bath attached to a jacket surrounding the fused quartz CD cell. The percent helical characterization of VIP was determined by a method of Haghjoo et al., Peptide Research 9 (6):327-331 (1996): % helicity=[−(θ208+4000)/29 000]*100 and are reported in table 1.
According to the example, CD was used to determine the conformation of VIP in saline, Hepes buffer and phospholipid micelles at room temperature and at 37° C. The CD spectra analysis was performed after 13 μg of human VIP incubated with 1 ml PEG-DSPE (1 μmol) micelles for 30 min at room temperature as determined by preliminary studies. A bandwidth of 1.0 nm and a step resolution of 0.5 nm were used to collect an average of 9 accumulations/sample at near UV range (200-260 nm). The temperature was maintained during spectral analysis by a circulating water bath attached to a jacket surrounding the fused quartz CD cell. The evaluation of VIP molecule conformation in SSM by using circular dichroism was successful because the distortion caused by spherical particles was eliminate due to the small size and univesicular structure of the SSM. […] The phospholipid micelles were ideal in our study of VIP conformation since it provided a hydrophobic core similar to the phospholipid bilayer of the SSL. Moreover, both the negative charge, and the hydrophilic layer provided by the PEG mimic the conditions of our SSL and make it possible to infer the VIP conformational results.
According to this example, the method of example 4 was repeated to determine the conformation of VIP in saline and phospholipid micelles plus calmodulin (CaM). CD spectra measurements were performed after 13 μg/ml of VIP was incubated with 1.0 μmol/ml of phospholipid micelles for 30 min followed by 10^−10 M CaM incubated with VIP in phospholipid micelles for 2 h at 4° C. (conjugation paper). A bandwidth of 1.0 nm and a step resolution of 0.5 nm were used to collect the average of 9 accumulations/sample at near UV range (200-260 nm).
According to this example the method of example 4 was repeated to determine the conformation of VIP fragments in saline and phospholipid micelles. CD spectra measurements were performed after incubation of VIP fragments with phospholipid micelles, at a molar concentration equivalent to VIP (i.e. 9 μg/ml for VIP10-28 fragment and 6 μg/ml for VIP1-12 fragment), for 30 min. A bandwidth of 1.0 nm and a step resolution of 0.5 nm were used to collect the average of 9 accumulations/sample at near UV range (200-260 nm). Specifically, CD spectra of human VIP fragment (1-12) and (10-28) in the presence of phospholipid micelles are shown in FIG. 5. […] These effects correlate well with the % helicity of VIP fragments determined in saline and in the presence of phospholipids (Table 1). […]

[2] = tested on: second order arterioles of the hamster cheek pouch microcirculation; test: Hamster cheek pouch microcirculation, arteriolar diameter during suffusion; type: in vivo
Experimental: According to this example, the vasorelaxant effects of VIP in a SSM were determined according to the following method. Specifically, adult male golden Syrian hamsters were purchased from Sasco (Omaha, Nebr.). Adult male hamsters with spontaneous hypertension and their normotensive controls were purchased from the Canadian Hybrid Farms (Halls Harbour, NS, Canada). Hypertensive animals have been identified after cross-breeding of hamsters with hereditary cardiomyopathy and normal golden Syrian hamsters. These albino animals have previously been used in our laboratory (Rubinstein et al., Biochem. Biophys. Res. Commun. 183:1117-1123 (1992); Artwohl et al., FASEB J. 10:A629 (1996)). Animals were anesthetized with pentobarbital sodium (6 mg/100 g body weight, i.p.). A tracheotomy was performed to facilitate spontaneous breathing. A femoral vein was cannulated to inject supplemental anesthesia during the experiment (2-4 mg/100 g body weight/h). Body temperature was maintained constant (37-38° C.) and monitored via heating pad and a feed back controller throughout the experiment.
The bioactivity of the VIP in SSM by diffusing it in situ was determined by visualization of the microcirculation of the hamster cheek pouch. The microcirculation of the cheek pouch was visualized locally by a method previously developed in our laboratory (Suzuki et al., Life Sci. 57:1451-1457 (1995); Suzuki et al., Am. J. Physiol. 271:R393-R397 (1996); and Suzuki et al., Am. J. Physiol. 271:H282-H287 (1996)). Briefly, the left cheek pouch was spread over a small plastic baseplate, and an incision was made in the outer skin to expose the cheek pouch membrane. The connective avascular tissue layer was removed, and a plastic chamber was placed over the baseplate and secured in place by suturing the skin around the upper chamber. This forms a triple-layered complex: the baseplate, the exposed cheek pouch membrane, and the upper chamber. After these initial procedures, the hamster is transferred to a heated microscope stage. The chamber was connected to a reservoir containing warmed bicarbonate buffer (37-38° C.) that allowed continuous suffusion of the cheek pouch. The buffer was bubbled continuously with 95% N2-5% CO2 (pH 7.4). […]
The cheek pouch microcirculation was epi-illuminated with a 100-W mercury light source and viewed through a microscope (Nikon, Tokyo, Japan) at a magnification of ×40. […] The inner-wall diameter of second order arterioles ([…]), which modulated vascular resistance in the cheek pouch, (Raud, Acta Physiol. Scand. (Suppl.) 578:1-58 (1989); Suzuki et al., Life Sci. 57:1451-1457 (1995); Suzuki et al., Am. J. Physiol. 271:R393-R397 (1996)) was measured from the video display of the microscope image using a videomicrometer (VIA 100; Boeckeler Instruments, Tucson, Ariz.). […]

[3] = tested on: second order arterioles of the hamster cheek pouch microcirculation; details: Séjourné et al. 1997; cited from earlier work
physchem = details: for solubility: aqueous with cosolvent or surfactant or cyclodextrin
Experimental: Solubilization potential of both micelle compositions for a model drug was measured by HPLC after separation of the unincorporated drug.
Excess drug was removed by centrifugation and the supernatant was analyzed by HPLC. […] HPLC eluent was measured with adsorption at 254 nm.
According to this example, micelle compositions of the invention were further characterized. Particularly, the physiochemical properties of sterically stabilized micelles prepared with DSPE conjugated to molecular weight 2000, 3000, and 5000 PEG were analyzed. The critical micelle concentration (CMC) of phospholipids was determined at pH 7.4 and 25° C. using a water-insoluble fluorescent probe (1,6-diphenyl-1,3,5-hexatriene). Micellar size was determined by quasi-elastic light scattering.
The solvent was then removed by vacuum rotary evaporation under a stream of argon to form a dry film. This dry film was further dried under vacuum overnight to remove any traces of remaining solvent. The dried film was rehydrated with isotonic 0.01M HEPES buffer, pH 7.4. The solution was then flushed with argon, sealed and equilibrated for 12 h at room temperature. The unsolubilized excess paclitaxel was removed by centrifugation at 13,000 g for 5 min to obtain a clear dispersion.
The solubilization potentials of SSMM and SSM for paclitaxel were determined by RP-HPLC. The clear aqueous dispersion was diluted with methanol. 20 μl of each sample was injected at least three times into a μBondapak C-18 column, 3.9 mm×30 cm (Waters, Milford, Mass.) equipped with a C18 column guard. The column was eluted with acetonitrile/water (60:40) at 1.0 ml/min (Waters 600). Detection was by UV absorption measurement at 227 nm (Waters 490). Peak areas were calculated by interfacing the detector to an electronic integrator (Hewlett Packard). The drug concentration was calculated from standard curves.

anesthetized rats = test: Infusion in anesthetized rats, haemodynamics by radioactive microsphere technique; type: in vivo, rat; details: 50 ng/kg/min infused for 30 minutes
Experimental: According to this aspect of the invention, the effect of infusion of enthelin-1 (ET-1) alone or in a SSM formulation on mean arterial pressure (MAP), cardiac output(CO), total peripheral resistance (TPR), and regional blood circulation in anesthetized rats was examined using a radioactive microsphere technique. SSM with or without ET-1 were prepared according to the method described in Example 11 using DSPE-PEG in saline. Treatments for individual groups consisted of: (i) control, SSM at 2.7 mg/ml (n=6); (ii) ET-1 infusion at 50 ng/kg/min (n=5), and (iii) ET-1 at 50 ng/kg/min in SSM (n=8). Drugs were infused at 0.1 ml/min for 30 minutes.

Compound: secretin
Conformation from CD spectrum in the presence of phospholipid micelles (SSM) [1]: appreciable α-helix conformation
Conformation from CD spectrum in saline [1]: unordered
increase in arteriolar diameter from baseline ([2]; suffusion of 5 nmol for 7 min): 10.3±0.6%

Compound: VIP10-28: VIP fragment 10-28, a selective VIP receptor antagonist (YTRLRKQMAVKKYLNSILN; ends and bridges not checked; UniProt P01282 134-152, looked up, fragment)
Conformation from CD spectrum in the presence of phospholipid micelles (SSM) [1]: predominantly α-helix structure
% Helicity (in the presence of) Phospholipids [1]: 18%
% Helicity (in the presence of) Saline [1]: 3%
Conformation from CD spectrum in saline [1]: primarily random coil conformation
effect on secretin- and secretin in SSM-induced vasodilation ([2]; VIP10-28 (50 nmol) suffused 30 min before and during secretin (5 nmol)): abrogated
effects on arteriolar diameter ([2]; suffusion of VIP10-28 alone (50 nmol)): no significant effects
effect on VIP in SSL response [3]: attenuated
effect on native VIP response [3]: completely abolished

solubility in 10 mg/ml DSPE-PEG (physchem): up to 200 μg/ml
Compound: C=C(C)[C@@H]1CC[C@]2(C(=O)O)CC[C@]3(C)[C@H](CC[C@@H]4[C@@]5(C)CC[C@H](O)C(C)(C)[C@@H]5CC[C@]43C)[C@@H]12 [betullinic acid]

Compound: NC(=O)CC[C@@H]1NC(=O)[C@H](Cc2ccccc2)NC(=O)[C@H](Cc2ccc(O)cc2)NC(=O)[C@@H](N)CSSC[C@@H](C(=O)N2CCC[C@H]2C(=O)N[C@@H](CCCN=C(N)N)C(=O)NCC(N)=O)NC(=O)[C@H](CC(N)=O)NC1=O [Vasopressin]
Conformation from CD spectrum in the presence of phospholipid micelles (SSM) [1]: primarily random coil conformation
% Helicity (in the presence of) Phospholipids [1]: 16%
% Helicity (in the presence of) Saline [1]: 8%
Conformation from CD spectrum in saline [1]: primarily random coil conformation

solubility (physchem; thermodynamic from solid, solubility in 10 mg/ml DSPE-PEG): ≤ 198 µg/mL
solubility (physchem; thermodynamic from solid, solubility of progesterone in DSPE-PEG micelles): 198 ± 7 µg/mL (≈ 630 µM)
solubility (physchem; thermodynamic from solid, solubility of progesterone in bile salt micelles): 21 µg/mL
Compound: CC(=O)[C@H]1CC[C@H]2[C@@H]3CCC4=CC(=O)CC[C@]4(C)[C@H]3CC[C@]12C [progesterone]

Compound: enthelin-1 (CSCSSLMDKECVYFCHLDIIW; ends and bridges not checked; cysteine pairing not given here; UniProt P05305 53-73, looked up) [ET-1]
Renal vascular resistance (anesthetized rats): 76%
increase in TPR (anesthetized rats): 102%
vascular resistance in brain (anesthetized rats): 62%

Compound: VIP1-12: VIP fragment 1-12 (HSDAVFTDNYTR; Vasoactive intestinal peptide; UniProt P01282 125-136, looked up, fragment)
Conformation from CD spectrum in the presence of phospholipid micelles (SSM) [1]: primarily random coil structure
% Helicity (in the presence of) Phospholipids [1]: 0.05%
% Helicity (in the presence of) Saline [1]: 0%
Conformation from CD spectrum in saline [1]: primarily random coil structure

solubility (physchem; solubility in either SSM or SSC): 250 µg/mL (≈ 547 µM)
Compound: C=C(C)[C@@H]1CC[C@]2(C(=O)O)CC[C@]3(C)[C@H](CC[C@@H]4[C@@]5(C)CC[C@H](O)C(C)(C)[C@@H]5CC[C@]43C)[C@@H]12 [betulinic acid]

Compound: calmodulin [CaM]
% Helicity (in the presence of) Phospholipids [1]: 0%
% Helicity (in the presence of) Saline [1]: 0%

Source: patent US20110142884A1, “Materials and Methods for Making Improved Micelle Compositions” (The Board of Trustees of the University of Illinois, priority 2002, published 2011)
